Experiments:
Armyworms = assay: Test of insecticidal activity against armyworms (leaf immersion); conditions: 600 mg/kg, 3-4 days
[1] = test system: mosquito larvae (Culer pipiens pallens); assay: Test of insecticidal activity against mosquito larvae (checked after 24 h)
Potato late blight = assay: microbe, parasite or virus in culture; assay type: cell-based; conditions: Phytophthora infestans, 96 h, read-out: Fungicidal activity (%) Potato late blight
Wheat sheath blight = assay: In vitro fungicidal activity, PDA colony diameter; assay type: cell-based; conditions: 50 mg/kg, inhibition of colony diameter; read-out: Fungicidal activity (%) Wheat sheath blight
Cotton bollworms = assay: Test of insecticidal activity against cotton bollworms (pesticide mixed into feedstuff); conditions: read-out: Mortalities (%) Cotton bollworms
Description: Method of testing against cotton bollworms: the pesticide is mixed into the feedstuff, i.e., 3 mL prepared solution is added into about 27 g freshly prepared feedstuff; thus, required concentration is obtained by diluting by 10 times.

Rice sheath blight = assay: In vitro fungicidal activity, PDA colony diameter; assay type: cell-based; conditions: 50 mg/kg, inhibition of colony diameter; read-out: Fungicidal activity (%) Rice sheath blight
Cucumber fusarium wilt = assay: In vitro fungicidal activity, PDA colony diameter; assay type: cell-based; conditions: 96 h, 50 mg/kg, inhibition of colony diameter, read-out: Fungicidal activity (%) Cucumber fusarium wilt
Tomato early blight = assay: In vitro fungicidal activity, PDA colony diameter; assay type: cell-based, Alternaria solani; conditions: 50 mg/kg, inhibition of colony diameter; read-out: Fungicidal activity (%) Tomato early blight
Rice bakanae disease = assay: In vitro fungicidal activity, PDA colony diameter; assay type: cell-based; conditions: 50 mg/kg, inhibition of colony diameter; read-out: Fungicidal activity (%) Rice bakanae disease
Watermelon anthracnose = assay: In vitro fungicidal activity, PDA colony diameter; assay type: cell-based; conditions: 50 mg/kg, inhibition of colony diameter; read-out: Fungicidal activity (%) Watermelon anthracnose
[2] = test system: Capsicum phytophthora blight; assay: In vitro fungicidal activity, PDA colony diameter; assay type: cell-based; conditions: 96 h
Description: (§1) Here, the test is described in an example of Alternaria solani; it can be replaced by other fungi.
(§2) In vitro testing method: Alternaria solani is inoculated to a PDA culture medium and cultured for 7 days, a fungus dish with a diameter of […] is prepared on the periphery of the colony with a punch and inoculated to a PDA culture medium that contains pesticide at a concentration of 50 mg/kg and a PDA culture medium that doesn't contain the pesticide, and are cultured for 4 days respectively; then, the colony diameters are measured, and the inhibition percentages of the pesticides are calculated by comparing with the control sample.

Apple ring rot = assay: In vitro fungicidal activity, PDA colony diameter; assay type: cell-based; conditions: inhibition of colony diameter
Description: as §1, §2

[3] = test system: Cercospora brown spot of peanut; assay: In vitro fungicidal activity, PDA colony diameter; assay type: cell-based; conditions: 96 h, 50 mg/kg, inhibition of colony diameter, read-out: Fungicidal activity (%) Cercospora brown spot of peanut
Maize borers = assay: Test of insecticidal activity against maize borers (leaf immersion); conditions: read-out: Mortalities (%) Maize borers
[4] = test system: Corn southern leaf blight; assay: In vitro fungicidal activity, PDA colony diameter; assay type: cell-based; conditions: 50 mg/kg, inhibition of colony diameter; read-out: Fungicidal activity (%) Corn southern leaf blight
Wheat head blight = assay: whole plant or invertebrate; assay type: cell-based; conditions: Triticum aestivum, read-out: Fungicidal activity (%) Wheat head blight
[5] = test system: bean aphides (Aphis laburni Kaltenbach); assay: Test of insecticidal activity against aphides (leaf immersion, checked after 96 h); conditions: for insecticidal activity against aphides compared with pymetrozine: 5 mg/kg
Sclerotinia rot of colza = assay: In vitro fungicidal activity, PDA colony diameter; assay type: cell-based; conditions: 96 h, 50 mg/kg, inhibition of colony diameter, read-out: Fungicidal activity (%) Sclerotinia rot of colza
[6] = 24 h, read-out: Mortalities (%) against mosquito larvae
[7] = Aphis, 96 h, read-out: Mortalities (%) against aphides

Compound | Mortalities (%) Armyworms (Armyworms) [%] | mortality at 10 mg/kg [1, 6] [%] | inhibition of growth at 50 mg/kg (Potato late blight) [%] | inhibition at 50 mg/kg (Wheat sheath blight) [%] | mortality at 600 mg/kg (Cotton bollworms) [%] | inhibition at 50 mg/kg (Rice sheath blight) [%] | inhibition of growth at 50 mg/kg (Cucumber fusarium wilt) [%] | inhibition at 50 mg/kg (Tomato early blight) [%] | inhibition at 50 mg/kg (Rice bakanae disease) [%] | inhibition at 50 mg/kg (Watermelon anthracnose) [%] | inhibition of growth at 50 mg/kg [2] [%] | inhibition at 50 mg/kg (Apple ring rot) [%] | inhibition of growth at 50 mg/kg [3] [%] | mortality at 600 mg/kg (Maize borers) [%] | inhibition at 50 mg/kg [4] [%] | inhibition at 50 mg/kg (Wheat head blight) [%] | mortality at 10 mg/kg [5, 7] [%] | mortality at 100 mg/kg [5, 7] [%] | mortality at 600 mg/kg [5, 7] [%] | inhibition of growth at 50 mg/kg (Sclerotinia rot of colza) [%] | also measured
CC1=NNC(=O)N(NS(=O)(=O)c2ccc(C#N)cc2)C1 [Ia-25, 4-cyano-N-(6-methyl-3-oxo-2,3-dihydro-1,2,4-triazin-4(5H)-yl)-benzenesulfonamide] | 10 | 100 | 18.7 | 14.3 | 35 | 13.9 | 8.8 | 16.4 | 17.2 | 24.6 | 22.2 | 4.1 | 12 | 25 | 0 | 5.4 | 85 | 100 | 100 | 26.3 | mortality at 2 mg/kg [1, 6]: 40%; mortality at 5 mg/kg [1, 6]: 100%; insecticidal activity against aphides compared with pymetrozine [5]: equivalent to the insecticidal activity of pymetrozine; mortality at 5 mg/kg [5, 7]: 20%
CCS(=O)(=O)N(N1CC(C)=NNC1=O)S(=O)(=O)CC [Ib-2, n-(ethylsulfonyl)-N-(6-methyl-3-oxo-2,3-dihydro-1,2,4-triazin-4(5H)-yl)-ethylsulfonamide] | 5 | 15 | 18.5 | 61.4 | 25 | 27 | 10 | 33.3 | 27.8 | 12.5 | 38.8 | 58.6 | 15.8 | 5 | 16.7 | 13.3 |  |  | 85 | 48.3 | 
CC1=NNC(=O)N(NS(=O)(=O)c2cccc(F)c2)C1 [Ia-17, 3-fluoro-N-(6-methyl-3-oxo-2,3-dihydro-1,2,4-triazin-4(5H)-yl)-benzenesulfonamide] | 5 | 100 | 3.1 | 14.3 | 5 | 20.9 | 5.9 | 13.4 | 13.8 | 8.2 | 13.9 | 10.8 | 16 | 10 | 0 | 35.1 | 85 | 100 | 100 | 21 | mortality at 2 mg/kg [1, 6]: 60%; mortality at 5 mg/kg [1, 6]: 100%; insecticidal activity against aphides compared with pymetrozine [5]: equivalent to the insecticidal activity of pymetrozine; mortality at 5 mg/kg [5, 7]: 35%
COC(=O)Nc1nc2ccccc2[nH]1 [Carbendazim, reference compound] |  |  | 100 | 100 |  | 100 | < 50 | < 50 | < 50 | 100 | < 50 | < 50 | < 50 |  | 100 | 100 |  |  |  | 100 | 
CC1=NNC(=O)N(NS(=O)(=O)c2ccc(F)cc2F)C1 [Ia-19, 2,4-difluoro-N-(6-methyl-3-oxo-2,3-dihydro-1,2,4-triazin-4(5H)-yl)-benzenesulfonamide] | 25 | 100 | 25 | 0 | 20 | 11.6 | 11.8 | 19.4 | 17.2 | 16.4 | 5.6 | 24.3 | 12 | 20 | 18.7 | 5.4 | 85 | 100 | 100 | 15.8 | mortality at 1 mg/kg [1, 6]: 60%; mortality at 2 mg/kg [1, 6]: 100%; mortality at 5 mg/kg [1, 6]: 100%; insecticidal activity against mosquito larvae ([1]; in vivo): relatively high insecticidal activity; insecticidal activity against aphides compared with pymetrozine [5]: equivalent to the insecticidal activity of pymetrozine; mortality at 5 mg/kg [5, 7]: 25%
CC1=NNC(=O)N(NS(=O)(=O)c2ccc3c(c2)CCO3)C1 [Ia-33, N-(6-methyl-3-oxo-2,3-dihydro-1,2,4-triazin-4(5H)-yl)-2,3-dihydrobenzofuran-5-sulfonamide] | 5 | 85 | 19 | 9.4 | 0 | 10.7 | 5.1 | 15 | 3.7 | 0 | 19.2 | 9.5 | 11.5 | 0 | 11.1 | 33.3 |  | 40 | 90 | 12.5 | 
CC1=NNC(=O)N(NS(=O)(=O)c2c(C)cc(C)cc2C)C1 [Ia-13, 2,4,6-trimethyl-N-(6-methyl-3-oxo-2,3-dihydro-1,2,4-triazin-4(5H)-yl)-benzenesulfonamide] | 65 | 100 | 25 | 4.3 | 30 | 11.6 | 0 | 9 | 13.8 | 24.6 | 22.2 | 10.8 | 12 | 45 | 28.1 | 16.2 | 100 | 100 | 100 | 21 | mortality at 2 mg/kg [1, 6]: 20%; mortality at 5 mg/kg [1, 6]: 100%; mortality at 2.5 mg/kg [5, 7]: 10%; mortality at 5 mg/kg [5, 7]: 60%
N#Cc1c(Cl)c(Cl)c(Cl)c(C#N)c1Cl [Chlorothalonil, reference compound] |  |  | 86.4 | 100 |  | 100 | 100 | 73.3 | 100 | 91.3 | 100 | 100 | 73.3 |  | 91.3 | < 50 |  |  |  | < 50 | 
CC1=NNC(=O)N(NS(=O)(=O)c2cccc3ccccc23)C1 [Ia-8, N-(6-methyl-3-oxo-2,3-dihydro-1,2,4-triazin-4(5H)-yl)-naphthyl-1-sulfonamide] | 10 | 15 | 28.6 | 30.2 | 0 | 17.9 | 20.5 | 20 | 7.4 | 0 | 26.9 | 0 | 19.2 | 0 | 8.3 | 33.3 | 25 | 85 | 90 | 16.7 | 

Source: patent publication US11203577B2, “Sulfonyl-structure-containing triazinone derivatives, their preparation methods and their uses in insect killing and/or bacterium killing” (Nankai University, priority 2017, dated 2021)
